Data published in patent US8431593B2, “Heteroaryl amide derivatives” (H. Lundbeck A/S, priority 2006, dated 2013).
Where two headings read alike, the source gives them in different places.

Molecular target: T1, P2X7 receptor (Homo sapiens, UniProt Q99572)
T1 construct: host or cells: SH-SY5Y
T1 sequence (Q99572 1-595): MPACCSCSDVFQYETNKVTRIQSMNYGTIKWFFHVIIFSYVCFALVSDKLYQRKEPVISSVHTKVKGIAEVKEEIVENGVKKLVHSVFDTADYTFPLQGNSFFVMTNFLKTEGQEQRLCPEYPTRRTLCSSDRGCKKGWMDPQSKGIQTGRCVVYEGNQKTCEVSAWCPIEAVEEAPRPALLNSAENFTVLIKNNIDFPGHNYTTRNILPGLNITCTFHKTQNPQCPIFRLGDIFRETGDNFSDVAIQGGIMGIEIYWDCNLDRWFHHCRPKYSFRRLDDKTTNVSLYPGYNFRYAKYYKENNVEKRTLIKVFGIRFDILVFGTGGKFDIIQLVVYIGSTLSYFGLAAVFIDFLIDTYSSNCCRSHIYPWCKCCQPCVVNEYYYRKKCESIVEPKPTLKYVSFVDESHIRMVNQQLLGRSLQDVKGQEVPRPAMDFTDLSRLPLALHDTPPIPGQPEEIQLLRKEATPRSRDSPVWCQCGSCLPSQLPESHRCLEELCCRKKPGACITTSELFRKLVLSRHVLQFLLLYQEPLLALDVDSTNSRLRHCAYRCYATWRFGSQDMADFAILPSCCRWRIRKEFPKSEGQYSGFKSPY
Assay: P2X7 calcium mobilization assay, high throughput, antagonist activity (Example 4A)
Assay type: cell-based
In short: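 Dye-loaded cells (100,000/well, seeded previous day) are pre-exposed to compound for an hour at room temperature. Fluorescence maxima are baseline-corrected against no-agonist wells and compared with the averaged agonist-well maximum.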

[1] = 50% decrease in the fluorescence response of cells exposed to 80 μM 2′(3′)-O-(4-benzoyl-benzoyl)adenosine 5′-triphosphate, Example 4A, read-out: IC50

For `CCN(CC)C(=O)C1CCCN(C(=O)c2cn3c(C(=O)NC[C@@H]4CC[C@H]5C[C@@H]4C5(C)C)cccc3n2)C1` (stereo partly drawn) [Compound 456, 2-{[3-(diethylcarbamoyl)piperidin-1-yl]carbonyl}-N-{[(1S,2R,5S)-6,6-dimethylbicyclo[3.1.1]hept-2-yl]methyl}imidazo[1,2-a]pyridine-5-carboxamide], the IC50 [1] was less than 2000 nM.
`CC(=O)NC1CCN(C(=O)c2cn3c(C(=O)NC[C@@H]4CC[C@H]5C[C@@H]4C5(C)C)cccc3n2)C1` (stereo partly drawn) [Compound 457, 2-[(3-acetamidopyrrolidin-1-yl)carbonyl]-N-{[(1S,2R,5S)-6,6-dimethylbicyclo[3.1.1]hept-2-yl]methyl}imidazo[1,2-a]pyridine-5-carboxamide] was tested, and the IC50 [1] was less than 2000 nM.
For `CCCN(C)C(=O)c1cn2c(C(=O)NC[C@@H]3CC[C@H]4C[C@@H]3C4(C)C)cccc2n1` [Compound 460, 5-N-{[(1S,2R,5S)-6,6-dimethylbicyclo[3.1.1]hept-2-yl]methyl}-2-N-methyl-2-N-propylimidazo[1,2-a]pyridine-2,5-dicarboxamide], the IC50 [1] was less than 2000 nM.
In the case of `CC1(C)[C@H]2CC[C@@H](CNC(=O)c3cccc4nc(C(=O)N5CCSCC5)cn34)[C@@H]1C2` [Compound 462, N-{[(1S,2R,5S)-6,6-dimethylbicyclo[3.1.1]hept-2-yl]methyl}-2-(thiomorpholin-4-ylcarbonyl)imidazo[1,2-a]pyridine-5-carboxamide], the IC50 [1] is reported as less than 2000 nM.
`CC1CCN(C(=O)c2cn3c(C(=O)NC[C@@H]4CC[C@H]5C[C@@H]4C5(C)C)cccc3n2)CC1` [Compound 463, N-{[(1S,2R,5S)-6,6-dimethylbicyclo[3.1.1]hept-2-yl]methyl}-2-[(4-methylpiperidin-1-yl)carbonyl]imidazo[l, 2-a]pyridine-5-carboxamide] was tested, and the IC50 [1] was less than 2000 nM.
In the case of `CC1(C)[C@H]2CC[C@@H](CNC(=O)c3cccc4nc(C(=O)N5CCOCC5)cn34)[C@@H]1C2` [Compound 464, N-{[(1S,2R,5S)-6,6-dimethylbicyclo[3.1.1]hept-2-yl]methyl}-2-(morpholin-4-ylcarbonyl)imidazo [1,2-a]pyridine-5-carboxamide], the IC50 [1] is reported as less than 2000 nM.
With `CC1(C)[C@H]2CC[C@@H](CNC(=O)c3cccc4nc(C(=O)N5CCCCC5)cn34)[C@@H]1C2` [Compound 465, N-{[(1S,2R,5S)-6,6-dimethylbicyclo[3.1.1]hept-2-yl]methyl}-2-(piperidin-1-ylcarbonyl)imidazo[1,2-a]pyridine-5-carboxamide] the IC50 [1] was less than 2000 nM.
With `COCCN(C)C(=O)c1cn2c(C(=O)NC[C@@H]3CC[C@H]4C[C@@H]3C4(C)C)cccc2n1` [Compound 466, 5-N-{[(1S,2R,5S)-6,6-dimethylbicyclo[3.1.1]hept-2-yl]methyl}-2-N-(2-methoxyethyl)-2-N-methylimidazo[1,2-a]pyridine-2,5-dicarboxamide] the IC50 [1] was less than 2000 nM.
`CC(C)CN(C)C(=O)c1cn2c(C(=O)NC[C@@H]3CC[C@H]4C[C@@H]3C4(C)C)cccc2n1` [Compound 467, 5-N-{[(1S,2R,5S)-6,6-dimethylbicyclo[3.1.1]hept-2-yl]methyl}-2-N-isobutyl-2-N-methylimidazo[1,2-a]pyridine-2,5-dicarboxamide] gave an IC50 [1] of less than 2000 nM.
Compound `CN(CC1OCCO1)C(=O)c1cn2c(C(=O)NC[C@@H]3CC[C@H]4C[C@@H]3C4(C)C)cccc2n1` [Compound 468, 5-N-{[(1S,2R,5S)-6,6-dimethylbicyclo[3.1.1]hept-2-yl]methyl}-2-N-(1,3-dioxolan-2-ylmethyl)-2-N-methylimidazo[1,2-a]pyridine-2,5-dicarboxamide] has an IC50 [1] of less than 2000 nM.
`CCN(C)C(=O)c1cn2c(C(=O)NC[C@@H]3CC[C@H]4C[C@@H]3C4(C)C)cccc2n1` [Compound 469, 5-N-{[(1S,2R,5S)-6,6-dimethylbicyclo[3.1.1]hept-2-yl]methyl}-2-N-ethyl-2-N-methylimidazo[1,2-a]pyridine-2,5-dicarboxamide] was tested, and the IC50 [1] was less than 2000 nM.
For `CN(C)C(=O)c1cn2c(C(=O)NC[C@@H]3CC[C@H]4C[C@@H]3C4(C)C)cccc2n1` [Compound 470, 5-N-{[(1S,2R,5S)-6,6-dimethylbicyclo[3.1.1]hept-2-yl]methyl}-2-N,2-N-dimethylimidazo[1,2-a]pyridine-2,5-dicarboxamide], the IC50 [1] was less than 2000 nM.
Compound `CCCCN(C)C(=O)c1cn2c(C(=O)NC[C@@H]3CC[C@H]4C[C@@H]3C4(C)C)cccc2n1` [Compound 471, 2-N-butyl-5-N-{[(1S,2R,5S)-6,6-dimethylbicyclo[3.1.1]hept-2-yl]methyl}-2-N-methylimidazo[1,2-a]pyridine-2,5-dicarboxamide] has an IC50 [1] of less than 2000 nM.
`COC[C@@H]1CCCN1C(=O)c1cn2c(C(=O)NC[C@@H]3CC[C@H]4C[C@@H]3C4(C)C)cccc2n1` [Compound 473, N-{[(1S,2R,5S)-6,6-dimethylbicyclo[3.1.1]hept-2-yl]methyl}-2-{[(2S)-2-(methoxymethyl)pyrrolidin-1-yl]carbonyl}imidazo[1,2-a]pyridine-5-carboxamide] was tested, and the IC50 [1] was less than 2000 nM.
With `CCCN(CC1CC1)C(=O)c1cn2c(C(=O)NC[C@@H]3CC[C@H]4C[C@@H]3C4(C)C)cccc2n1` [Compound 474, 2-N-(cyclopropylmethyl)-5-N-{[(1S,2R,5S)-6,6-dimethylbicyclo[3.1.1]hept-2-yl]methyl}-2-N-propylimidazo[1,2-a]pyridine-2,5-dicarboxamide] the IC50 [1] was less than 2000 nM.
Compound `CCCCN(CC)C(=O)c1cn2c(C(=O)NC[C@@H]3CC[C@H]4C[C@@H]3C4(C)C)cccc2n1` [Compound 475, 2-N-butyl-5-N-{[(1S,2R,5S)-6,6-dimethylbicyclo[3.1.1]hept-2-yl]methyl}-2-N-ethylimidazo[1,2-a]pyridine-2,5-dicarboxamide] has an IC50 [1] of less than 2000 nM.
Work on `CCCN(CCC)C(=O)c1cn2c(C(=O)NC[C@@H]3CC[C@H]4C[C@@H]3C4(C)C)cccc2n1` [Compound 476, 5-N-{[(1S,2R,5S)-6,6-dimethylbicyclo[3.1.1]hept-2-yl]methyl}-2-N,2-N-dipropylimidazo[1,2-a]pyridine-2,5-dicarboxamide] yielded an IC50 of less than 2000 nM.
`CCN(CC)C(=O)c1cn2c(C(=O)NC[C@@H]3CC[C@H]4C[C@@H]3C4(C)C)cccc2n1` [Compound 477, 5-N-{[(1S,2R,5S)-6,6-dimethylbicyclo[3.1.1]hept-2-yl]methyl}-2-N,2-N-diethylimidazo[1,2-a]pyridine-2,5-dicarboxamide] was tested, and the IC50 [1] was less than 2000 nM.
`CCOC(=O)CN(CC)C(=O)c1cn2c(C(=O)NC[C@@H]3CC[C@H]4C[C@@H]3C4(C)C)cccc2n1` [Compound 479, ethyl N-{[5-({[(1S,2R,5S)-6,6-dimethylbicyclo[3.1.1]hept-2-yl]methyl}carbamoyl)imidazo[1,2-a]pyridin-2-yl]carbonyl}-N-ethylglycinate] gave an IC50 [1] of less than 2000 nM.
With `COC(=O)C1CCCN1C(=O)c1cn2c(C(=O)NC[C@@H]3CC[C@H]4C[C@@H]3C4(C)C)cccc2n1` (stereo partly drawn) [Compound 480, methyl 1-{[5-({[(1S,2R,5S)-6.6-dimethylbicyclo[3.1.1]hept-2-yl]methyl}carbamoyl)imidazo[1,2-a]pyridin-2-yl]carbonyl}prolinate] the IC50 [1] was less than 2000 nM.
With `COC(=O)CN(C)C(=O)c1cn2c(C(=O)NC[C@@H]3CC[C@H]4C[C@@H]3C4(C)C)cccc2n1` [Compound 481, methyl N-{[5-({[(1S,2R,5S)-6,6-dimethylbicyclo[3.1.1]hept-2-yl]methyl}carbamoyl)imidazo[1,2-a]pyridin-2-yl]carbonyl}-N-methylglycinate] the IC50 [1] was less than 2000 nM.
